Source: patent publication US11491147B2, “Combination drug therapy reduces PARP-1 related DNA repair and increases the efficacy of genotoxic agents” (Indiana University Research and Technology Corporation, priority 2016, dated 2022)

What was measured:
MCF7 cells [1] = experiment: Colony formation survival assay, MCF7 cells; type: cell-based, human; conditions: MCF7 cells; for IC50: Homo sapiens, single agent, colony formation, read-out: IC50, cell survival
Method: FIG. 15. […] B. Combination index. Combination index (CI) was derived using the data shown in A and the formula: […]
(§1) For each potency ratio, combination index of three effective concentrations at IC30, IC50, and IC70 were calculated for synergistic effects using Prism 7.0.
(§2) Cells were then harvested and re-plated in 6-well plates at a density of 200 cells/well followed by IR treatment at different doses and colony formation assay or collection of cells for Western blot analysis. Concentration-response curves and IC50 values were calculated using Prism 7.0 (GraphPad, La Jolla, USA).

MDA-MB-231 cells = experiment: Colony formation survival assay, MDA-MB-231 cells; type: cell-based; conditions: Homo sapiens, single agent, read-out: IC50, cell survival
MDA-MB-468 cells [2] = experiment: Colony formation survival assay, MDA-MB-468 cells; type: cell-based, human; conditions: pre-treated with 10 μM lansoprazole for 3 days
Method: as §1, §2

PARP1 expression = experiment: Western blot of PARP1 expression in 4 breast cancer cell lines; type: cell-based, human; conditions: lansoprazole at different concentrations, all 4 cell lines
Description: FIG. 18. Role of FASN in mediating PPI effect. A, Western blot analysis of FASN and PARP1 expression in MCF7 cells with ectopic FASN over-expression and in drug resistant MCF7/AdVp3000 (M3K) cells with FASN knockdown. […] E, Rescue of lansoprazole-induced reduction in NHEJ activity by ectopic FASN over-expression. […] G, Ablation of lansoprazole-induced γH2AX level increase by ectopic FASN over-expression as determined using Western blot analysis. Actin was used as loading control for all Western blot analyses.
FASN can regulate NHEJ repair activity by regulating PARP1 expression (Wu et al., 2017).
Cells were harvest and then lysed in TNN buffer with 1 mM DTT, 1 mM PMSF and 0.1% SDS for 30 min at 4° C. with occasional agitation. The cells were sonicated briefly and total proteins were harvested after centrifugation of the lysate at 16,000 g for 15 minutes at to remove cell debris. The protein concentration of cell lysates was determined using a Bio-Rad protein assay kit. […]

[3] = test system: NHEJ activity in MCF7 cells; experiment: Host cell reactivation NHEJ assay, MCF7 cells; type: cell-based, human; conditions: 10 μM, three days
Method: (§3) The host cell reactivation NHEJ assay was carried out as previously described (Wu et al., 2017) with minor modifications. Briefly, 1×10^4 cells were seeded in 24-well plates, cultured overnight and then treated with 10 μM Lansoprzole or vehicle every day for three days before transfection with either linearized or intact pGL3-luc firefly luciferase plasmids (400 ng) using Lipofectamine 2000 (Invitrogen). pGL3-luc plasmid was linearized by HindIII digestion, and linearization was verified by DNA agarose gel electrophoresis before transfection. pRL-TK (Promega) plasmid which encodes renilla luciferase was co-transfected (400 ng) as a control for transfection efficiency. 8 hours after transfection, cells were harvested and assayed for luciferase activity with Dual Luciferase Assay (Promega) on a luminometer. Firefly luciferase signal were normalized to renilla luciferase signal in each group. Overall NHEJ activity was calculated by firefly luciferase activity from cells transfected with linearized plasmid relative to that of the intact plasmid.

[4] = test system: NHEJ activity in MDA-MB-468 cells; experiment: Host cell reactivation NHEJ assay, MDA-MB-468 cells; type: cell-based, human; conditions: 10 μM, three days
Method: as §3

γ-H2AX in MCF7 cells = experiment: Western blot of γ-H2AX, MCF7 cells; type: cell-based, human; conditions: lansoprazole alone
Method: (§4) Furthermore, the lansoprazole-induced γ-H2AX increase in MCF7 cells was ablated by over-expressing ectopic FASN (FIG. 18G).
(§5) Cells were harvest and then lysed in TNN buffer with 1 mM DTT, 1 mM PMSF and 0.1% SDS for 30 min at 4° C. with occasional agitation. The cells were sonicated briefly and total proteins were harvested after centrifugation of the lysate at 16,000 g for 15 minutes at to remove cell debris. The protein concentration of cell lysates was determined using a Bio-Rad protein assay kit. Total cell lysates were then separated by SDS-PAGE, transferred to a polyvinylidene fluoride membrane, and probed using antibodies against fatty acid synthase (610963, BD biosciences), PARP-1 (46D11, CST), γ-H2AX (05-636, Millipore), and (3-Actin (A2228, Sigma). The blot was then probed with horseradish peroxidase-conjugated secondary antibodies (Sigma) and signals were captured on X-ray films following developing with Amersham ECL Western Blotting Detection Reagent (RPN2106, GE).

[5] = test system: γ-H2AX in MDA-MB-468 cells; experiment: Western blot of γ-H2AX, MDA-MB-468 cells; type: cell-based, human; conditions: lansoprazole alone
Method: as §4, §5

MCF7 cells [6] = experiment: Apoptosis and cell cycle distribution, MCF7 cells; type: cell-based, human
Method: (§6) Cancer cells were plated in 6-well plates at a density of 2×10^5 cells/well, cultured overnight. […] Cells were washed with PBS and fixed ice cold 70% ethanol overnight. After centrifugation, pellets were resuspended in PBS, stained with propidium iodide solution for 30 min in the dark and analyzed by flow cytometry.

MDA-MB-468 cells [7] = experiment: Apoptosis and cell cycle distribution, MDA-MB-468 cells; type: cell-based, human
Method: as §6

breast cancer patients = experiment: Retrospective survival analysis of electronic medical records of breast cancer patients; type: in vivo, human
Method: FIG. 16. Retrospective survival analysis of breast cancer patients with or without use of proton pump inhibitors (PPIs). De-identified electronic medical records of 6,752 breast cancer patients were retrieved from the database of Indiana Network for Patient Care (INPC) and subjected to Kaplan-Meier survival analysis in association with PPI usage in all patients (A) or in triple negative breast cancer patient subgroup (B). The p-value and hazard ratio (HR) were calculated from Cox proportional hazard models, which were adjusted for age, tumor stage, and time of first diagnosis.
Because PPIs are widely used for treatment of a variety of acid-related digestive disorders, many cancer patients may use PPIs without the knowledge that the combination of PPIs with their chemotherapy may have helped them. To this end, a retrospective association analysis was conducted using de-identified electronic medical records (EMR) of 6,752 breast cancer patients from Indiana Network for Patient Care (INPC). The average age at diagnosis is 58.9 years (range 19-102) and average age at death or last visit is 61.5 (range 21-104). Of this cohort, 534 patients took one or more PPIs after diagnosis as recorded in the EMR. There are 488 triple negative breast cancer (TNBC) patients, among them 35 used PPIs. Using the Cox proportional hazard regression model, the patient overall survival was analyzed against PPI usage. […] The protective effect of PPIs on patient survival was adjusted for age, tumor stage, and time of first diagnosis.
The patient database contains three domains of electronic medical records (EMR) of 6,752 de-identified breast cancer patients from Indiana Network for Patient Care (INPC). The first domain contains patient characteristics as shown in Supplemental Table 51. The second domain contains medical test results including body weight, blood tests, and office visit information. The third domain contains prescription information for each patient. The use of this database has been approved by IRB at Indiana University for this study.
The first task is to remove null and duplicated values and to resolve contradicting records. For patients that have contradicting records, different rules for different conflicts were followed. For conflicts on the first visit or diagnosis time, the earlier record at younger age were used as the first diagnosis and considered the later one as system update. For all other information including diagnosis information such as cancer subtype, the latest record was used as it is thought to be more accurate.
Next, the plain text information from the first domain of the database including but not limited to ER, PR, and HER2 test results, treatment plans, and therapy types were digitized. The record that is not clear was marked as unknown. For example, the HER2 status with a 2+ score, a borderline score, from IHC staining was usually confirmed with FISH test. Patients with a 2+ score but without a FISH test result were considered unknown in this study.
Further, the days of patient survival from data in the first domain were validated using prescription history of the same patient in the third domain of the database. When there is a conflict, the last day of office visit or prescription refill, whichever is later, was recorded as the last day of visit or death. Moreover, patients who took PPIs prior to their diagnosis of breast cancer but stopped taking them after diagnosis were considered non-PPI users in this study.

[8] = test system: MCF7, T47D, MDA-MB-231, and MDA-MB-468 cells; experiment: Colony formation survival assay, four breast cancer cell lines
Method: Next, tested whether PPIs inhibit survival of breast cancer cell lines with different levels of FASN expression (FIG. 17B) using colony formation assay.
Briefly, breast cancer cells were seeded in six-well plates at 200 cells/well and cultured overnight followed by treatments without or with PPIs at different concentrations for 14 days. The colonies formed were then washed with PBS, fixed in 100% methanol and stained with 0.5% crystal violet in 25% methanol. The stained colonies were counted manually and concentration-response curves with IC50 were generated using Prism 7.0 (GraphPad, La Jolla, USA).

TE activity of FASN = molecular target: T1, TE activity of FASN (Homo sapiens, UniProt P49327); experiment: TE activity assay using recombinant TE; type: biochemical
T1 construct: TE activity assay was performed also as previously described using recombinant TE (Fako et al., 2015)

M/FASN cells = experiment: MTT survival assay, M/FASN cells; type: cell-based, human
Method: (§7) FIG. 5. PARP-1 mediates FASN-associated DNA repair and genotoxic treatment resistance. A-B, Effect of FASN on PARP-1 expression as determined by Western blot (A) and real-time RT-PCR (B) in stable FASN-over-expressing and -knockdown cells. C, Effect of FASN on IR-induced histone-H3 PARylation. Cells were pre-treated without or with 0.5 μM olaparib followed by treatment with or without IR and harvested at different times following IR for lysate preparation, immunoprecipitation of histone-H3 in the presence of 100 μM PARG inhibitor, gallotannin, and Western blot analyses of PARylated and total histone H3. D, Effect of PARP-1 knockdown on FASN-induced NHEJ up-regulation. FASN-over-expressing (P/FASN) and the control (P/Vec) cells were transiently transected with PARP-1 or scrambled control siRNA followed by Western blot analysis of PARP-1 (left panel) and NHEJ activity assay (right panel) (n=3, *p<0.05; **p<0.01). E, Effect of PARP-1 inhibition on survival. M/FASN cells were treated with 1 mM 3-ABA, 0.5 μM olaparib, or their vehicle control for 48 hours followed by MTT assay. F, Effect of PARP-1 inhibition on doxorubicin resistance. M/FASN cells were pre-treated for 6 hours by 1 mM 3-ABA, 0.5 μM olaparib, or transfected with control or PARP-1 siRNA followed by tested doxorubicin resistance using MTT survival assay. (n=3-4, *p<0.05, **p<0.01).
To determine if FASN enhancement of PARP-1 likely mediates FASN function in cellular resistance to DNA damages, a survival assay of […] cells following doxorubicin treatment in the absence or presence of PARP-1 inhibitors, 3-ABA (3-aminobenzamide) or olaparib was carried out. Now referring to FIG. 5E, either 1 mM 3-ABA or 0.5 μM olaparib alone had no effect on M/FASN cell survival.
MTT survival assay was performed as previously described (see e.g., Yang Y, Chen Q, & Zhang J T (2002) Structural and functional consequences of mutating cysteine residues in the amino terminus of human multidrug resistance-associated protein 1. J. Biol. Chem. 277(46):44268-44277). Briefly, cells in 96-well plate were cultured for 24 hours and treated with various concentrations of doxorubicin, bleomycin, cisplatin or H2O2 continuously for 3 days followed by addition of thiazolyl blue tetrazolium bromide (MTT) to a final concentration of 0.5 mg/mL and incubation at 37° C. for 4 hours. Medium was then removed and formazan was solubilized in dimethyl sulfoxide and the OD570 was measured by a Synergy H1 hybrid reader (BioTek, Winooski, Vt.). IC50's were obtained from the fitted curves generated by GraphPad Prism 5.0 program (GraphPad Software, Inc.). Relative resistance factor (RRF) is calculated using the formula RRF=IC50 (test)/IC50 (control) with control normalized as 1. […]

PARylated histone-H3 = experiment: IR-induced histone-H3 PARylation, immunoprecipitation and Western blot; type: cell-based, human; conditions: pre-treatment with 0.5 μM olaparib, 5 Gy IR, P/FASN and P/Vec cells
Method: as §7, with “*p<0.05, **p<0.01). […]” for “*p<0.05, **p<0.01).”

T1 sequence (P49327 2207-2511 limits assumed): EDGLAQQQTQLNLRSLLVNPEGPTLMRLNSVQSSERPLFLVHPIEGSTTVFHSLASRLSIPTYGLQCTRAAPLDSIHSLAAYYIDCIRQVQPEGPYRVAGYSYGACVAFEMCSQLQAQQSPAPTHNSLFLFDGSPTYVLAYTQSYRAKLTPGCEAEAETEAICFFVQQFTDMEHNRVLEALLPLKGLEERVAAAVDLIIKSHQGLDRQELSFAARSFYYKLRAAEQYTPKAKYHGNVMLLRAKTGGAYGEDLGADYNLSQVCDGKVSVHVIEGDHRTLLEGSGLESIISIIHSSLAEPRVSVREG

Structure (SMILES): Cc1c(OCC(F)(F)F)ccnc1C[S+]([O-])c1nc2ccccc2[nH]1 (stereo not shown) [lansoprazole]
- IC50 (MCF7 cells [1]): 1300 ± 700 nM
- sensitization to IR treatment (MCF7 cells [1]; pre-treated with 10 μM lansoprazole for 3 days): sensitized
- IC50 (MDA-MB-231 cells): 21400 ± 4100 nM
- sensitization to IR treatment (MDA-MB-468 cells [2]): sensitized
- PARP1 expression (PARP1 expression): dose-dependently reduced
- NHEJ activity [3]: significantly reduced
- NHEJ activity [4]: significantly reduced
- level of γ-H2AX (γ-H2AX in MCF7 cells): increased the level of γ-H2AX in a dose-dependent manner
- level of γ-H2AX [5]: increased the level of γ-H2AX in a dose-dependent manner
- apoptosis (MCF7 cells [6]): dose-dependently induced apoptosis
- cell cycle distribution (MCF7 cells [6]): cell cycle arrest at G1
- apoptosis (MDA-MB-468 cells [7]): dose-dependently induced apoptosis
- cell cycle distribution (MDA-MB-468 cells [7]): S phase
- HR (CoxPH ratio), overall survival (breast cancer patients; pairwise versus Omeprazole users, all patients): 0.68
- HR (CoxPH ratio), overall survival (breast cancer patients; single-PPI users versus No PPI, all breast cancer patients): 0.17
- HR, overall survival (breast cancer patients; versus No PPI, African American (AA) patients): 1.09*10^−7
- HR, overall survival (breast cancer patients; versus No PPI, Caucasian (CA) patients): 0.18
- HR, overall survival (breast cancer patients; versus Omeprazole, AA patients): 3.99*10^−9
- HR, overall survival (breast cancer patients; versus Omeprazole, CA patients): 0.81
- inhibition of breast cancer cell survival, comparison among PPIs [8]: the most effective one for all 4 cell lines

Structure (SMILES): Cc1c(OCC(F)(F)F)ccnc1C[S@@+]([O-])c1nc2ccccc2[nH]1 [R-lansoprazole]
- inhibition of TE (Ki), R- versus S-enantiomer (TE activity of FASN): significantly more effective than the S-lansoprazole

Structure (SMILES): O=C(c1cc(Cc2n[nH]c(=O)c3ccccc23)ccc1F)N1CCN(C(=O)C2CC2)CC1 [olaparib]
- IC50 (MCF7 cells [1]): 1000 nM
- effect on M/FASN cell survival (M/FASN cells; 1 mM 3-ABA or 0.5 μM olaparib alone, 48 hours): no effect
- doxorubicin resistance level of M/FASN cells (M/FASN cells; pre-treated for 6 hours by 1 mM 3-ABA or 0.5 μM olaparib): significantly reduced
- IR-induced PARylation of histone-H3 (PARylated histone-H3): inhibited IR-induced PARylation
